Experimental data: patent EP0693071B1, “NEW CARBOXYLIC-ACID ESTERS OF 2-AMINO-7-(1,3-DIHYDROXY-2-PROPOXYMETHYL)PURINE, THE PREPARATION OF SUCH ESTERS AND THEIR USE” (HOECHST AKTIENGESELLSCHAFT, priority 1993, dated 1994)
Like-named read-outs stand apart in the source and are kept apart here.

System: Herpes simplex 1 Virus (HSV-1)
Experiment: Activity against systemic HSV-1 infection in NMRI mice, oral treatment
Type: in vivo, NMRI-Mäuse
Conditions: for ED50: read-out: IC50 (nach Reed und Muench); for mittlere Überlebenszeit (Tage): oral
From the text: Wirkung gegen systemische Herpes simplex 1 Virus (HSV-1) Infektion: NMRI-Mäuse, spezifisch pathogenfrei, im Gewicht von 15 bis 18 g wurden intraperitoneal mit HSV-1 infiziert und anschließend mit den erfindungsgemäßen Verbindungen oral therapiert. Die Behandlung erfolgte erstmals 3 Stunden nach der Infektion und wurde zweimal täglich über 4 Tage fortgesetzt. Der Behandlungserfolg wurde anhand des Krankheitsverlaufes und der Überlebensrate gegenüber der unbehandelten Infektionskontrolle bestimmt. Letztere erhielt anstelle der erfindungsgemäßen Verbindungen physiologische Kochsalzlösung appliziert. Die Beobachtungszeit betrug zwei Wochen. Tabelle 1 zeigt die Ergebnisse dieser Untersuchung.

[1] = Human alphaherpesvirus 1, 336 h, NMRI mouse, HSV-1 i.p. infection, oral treatment, 9 doses (first 3 h after infection, then twice daily over 4 days), 2 weeks observation

Row | SMILES | ED50 [1] | other results
1 | Nc1ncc2c(ncn2COC(CO)COC(=O)c2ccsc2)n1 (stereo not shown) [Beispiel 14] | 11.5 µmol/kg | –
2 | Nc1ncc2c(ncn2COC(COC(=O)c2ccccc2)COC(=O)c2ccccc2)n1 [Beispiel 11, 2-Amino-7-[(1,3-bis-benzoyloxy-2-propoxy)methyl]purin] | 17.3 µmol/kg | –
3 | Nc1ncc2c(ncn2COC(COC(=O)Cc2ccccc2)COC(=O)Cc2ccccc2)n1 [Beispiel 12, 2-Amino-7-[(1,3-bis-phenylacetoxy-2-propoxy)methyl]purin] | – | ED50 (Human alphaherpesvirus 1, po, 336 h): < 10 µmol/kg
4 | Nc1ncc2c(ncn2COC(COC(=O)C2CCCCC2)COC(=O)C2CCCCC2)n1 [Beispiel 9, 2-Amino-7-[(1,3-bis-cyclohexancarbonyloxy-2-propoxy)methyl]purin] | 5.6 µmol/kg | –
5 | COCC(=O)OCC(COC(=O)COC)OCn1cnc2nc(N)ncc21 [Beispiel 6, 2-Amino-7-[(1,3-bis-methoxyacetoxy-2-propoxy)methyl]purin] | < 10 µmol/kg | mittlere Überlebenszeit (Tage) (Dosierung 9 x 10 µmol/kg): 9 Tage
6 | Nc1ncc2c(ncn2COC(CO)COC(=O)C2CCCCC2)n1 (stereo not shown) [Beispiel 10, 2-Amino-7-[(1-cyclohexancarbonyloxy-3-hydroxy-2-propoxy)methyl] purin] | 3.6 µmol/kg | –
7 | Nc1ncc2c(ncn2COC(CO)CO)n1 [Formel 1, R1=R2=H (=Verb. der Formel 1'), 2-Amino-7-[(1,3-dihydroxy-2-propoxy)methyl]purin, reference compound] | 34.5 µmol/kg | –
8 | CCCCC(=O)OCC(CO)OCn1cnc2nc(N)ncc21 (stereo not shown) [Beispiel 3, 2-Amino-7-[(1-hydroxy-3-valeroyloxy-2-propoxy)methyl]purin] | < 9.3 µmol/kg | mittlere Überlebenszeit (Tage) (Dosierung 9 x 9,3 µmol/kg): 10 Tage
9 | CC(C)(C)C(=O)OCC(COC(=O)C(C)(C)C)OCn1cnc2nc(N)ncc21 [Beispiel 1, 2-Amino-7-[(1,3-bis-pivaloyloxy-2-propoxy)methyl]purin] | 19.7 µmol/kg | –
10 | CCOCC(=O)OCC(COC(=O)COCC)OCn1cnc2nc(N)ncc21 [Beispiel 7, 2-Amino-7-[(1,3-bis-ethoxyacetoxy-2-propoxy)methyl]purin] | 13.2 µmol/kg | –
11 | CCCCC(=O)OCC(COC(=O)CCCC)OCn1cnc2nc(N)ncc21 [Beispiel 2, 2-Amino-7-[(1,3-bis-valeroyloxy-2-propoxy)methyl]purin] | 12 µmol/kg | mittlere Überlebenszeit (Tage) (Dosierung 9 x 10 µmol/kg): 9 ± 1,7 Tage
12 | Nc1ncc2c(ncn2COC(COC(=O)c2ccsc2)COC(=O)c2ccsc2)n1 [Beispiel 13] | 5.6 µmol/kg | –
13 | Nc1ncc2c(ncn2COC(COC(=O)Cc2cccnc2)COC(=O)Cc2cccnc2)n1 [Beispiel 15] | 10 µmol/kg | –
